# Source: ChEMBL document CHEMBL4831518, “Structure-aided optimization of non-nucleoside M. tuberculosis thymidylate kinase inhibitors” (Eur J Med Chem, 2021)
# Key:
# [1] = molecular target: T1, Thymidylate kinase (Mycobacterium tuberculosis, UniProt P9WKE1); assay: Inhibition of Mycobacterium tuberculosis H37Rv TMPK expressed in Escherichia coli by coupled enzyme based spectrophotometric analysis
# T1 sequence (P9WKE1 whole entry): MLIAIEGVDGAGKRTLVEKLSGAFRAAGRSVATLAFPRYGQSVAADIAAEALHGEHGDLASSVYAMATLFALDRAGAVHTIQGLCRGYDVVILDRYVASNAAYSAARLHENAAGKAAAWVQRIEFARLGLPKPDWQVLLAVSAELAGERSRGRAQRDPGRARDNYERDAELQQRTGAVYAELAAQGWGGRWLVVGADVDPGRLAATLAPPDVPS
# [2] = system: Mycobacterium tuberculosis; assay: Antimycobacterial activity against Mycobacterium tuberculosis H37Rv ATCC 27294 assessed as inhibition of bacterial growth in presence of glucose by broth microdilution method; assay type: functional
# [3] = system: MRC5; assay: Cytotoxicity against human MRC-5 cells assessed as reduction in cell growth measured after 3 days by resazurin dye based fluorometric analysis; conditions: MRC5, 72 h
# [4] = system: Mycobacterium tuberculosis; assay: Antibacterial activity againstMycobacterium tuberculosis H37Rv assessed as inhibition of bacterial growth in presence of efflux pump inhibitor PAbetaN and glucose […] by microdilution assay; assay type: functional
# [5] = system: Mycobacterium tuberculosis; assay: Antibacterial activity against Mycobacterium tuberculosis H37Rv assessed as inhibition of bacterial growth in presence of efflux pump inhibitor verapamil and glucose […] by microdilution assay; assay type: functional
# [6] = molecular target: T2, Thymidylate kinase (Homo sapiens, UniProt P23919); assay: Inhibition of human TMPK at 40 uM
# T2 sequence (P23919 whole entry): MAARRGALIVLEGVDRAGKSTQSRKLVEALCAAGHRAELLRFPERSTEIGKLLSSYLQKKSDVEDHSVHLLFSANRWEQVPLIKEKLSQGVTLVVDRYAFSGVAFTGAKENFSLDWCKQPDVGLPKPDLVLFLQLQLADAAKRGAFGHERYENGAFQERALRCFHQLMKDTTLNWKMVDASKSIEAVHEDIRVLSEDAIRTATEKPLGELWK
# [7] = molecular target: T2, Thymidylate kinase; assay: Inhibition of human TMPK at 31 uM
# [8] = Mycobacterium tuberculosis, H37Rv ATCC 27294, read-out: MIC
# [9] = Mycobacterium tuberculosis, H37Rv, read-out: MIC
SMILES,IC50 [1] [µM],"MIC [2, 8] [µM]",IC50 [3] [µM],further results
Cc1cn(C2CCN(Cc3cccc(Oc4ccccc4)c3)CC2)c(=O)[nH]c1=O,6.1,,,
Cc1cn(C2CCN(Cc3cccc(Oc4cccc(F)c4)c3)CC2)c(=O)[nH]c1=O,2.9,25,> 64,
Cc1cn(C2CCN(Cc3ccnc(Oc4ccccc4)c3)CC2)c(=O)[nH]c1=O,10.2,> 50,> 64,
Cc1cn(C2CCN(Cc3cccc(Oc4cccc(C(F)(F)F)c4)c3)CC2)c(=O)[nH]c1=O,0.6,19,12.4,
COc1cccc(Oc2cccc(CN3CCC(n4cc(C)c(=O)[nH]c4=O)CC3)c2)c1,1.2,25,25.3,
Cc1cn(C2CCN(Cc3cccc(OC4CCCC4)c3)CC2)c(=O)[nH]c1=O,32,> 50,30.3,
COc1ccc(Oc2cccc(CN3CCC(n4cc(C)c(=O)[nH]c4=O)CC3)c2)cc1,10.5,,28,"MIC [2]: 31.25 µM; MIC [4]: 15.6 µg/mL; MIC [5, 9]: 15.6 µg/mL"
Cc1cn(C2CCN(Cc3cccc(Oc4cccnc4)c3)CC2)c(=O)[nH]c1=O,27,> 50,> 64,
Cc1cn(C2CCN(Cc3cccc(Oc4ccc(Cl)c(C(F)(F)F)c4)c3)CC2)c(=O)[nH]c1=O,1.1,25,5.28,inhibition (INH) [6]: Not Active
Cc1cn(C2CCN(Cc3cccc(Oc4ccc(Cl)cc4)c3)CC2)c(=O)[nH]c1=O,6.9,12.5,25.1,
Cc1cn(C2CCN(Cc3cccc(Oc4cccc(Cl)c4)c3)CC2)c(=O)[nH]c1=O,0.89,12.5,21,
Cc1cn(C2CCN(Cc3cccc(Oc4cc(F)cc(F)c4)c3)CC2)c(=O)[nH]c1=O,2.8,> 50,> 64,
Cc1cn(C2CCN(Cc3cccc(Oc4ccncc4)c3)CC2)c(=O)[nH]c1=O,20,,,
Cc1cn(C2CCN(Cc3cc(Oc4ccccc4)ccn3)CC2)c(=O)[nH]c1=O,8.7,> 50,> 64,
Cc1cn(C2CCN(Cc3cccc(Oc4cc(C(F)(F)F)cc(C(F)(F)F)c4)c3)CC2)c(=O)[nH]c1=O,0.14,> 50,,
Cc1cn(C2CCN(Cc3cccc(Oc4cccc(Cl)c4)n3)CC2)c(=O)[nH]c1=O,0.45,31,> 64,inhibition (INH) [6]: Not Active
Cc1cn(C2CCN(Cc3cccc(Oc4ccc(Cl)c(Cl)c4)c3)CC2)c(=O)[nH]c1=O,1.1,12.5,6.1,inhibition (INH) [6]: Not Active
Cc1ccc(Oc2cccc(CN3CCC(n4cc(C)c(=O)[nH]c4=O)CC3)c2)cc1,12,31.2,> 64,"MIC [4]: 15.6 µg/mL; MIC [5, 9]: 15.6 µg/mL"

SMILES,IC50 [1] [µM],"MIC [2, 8] [µM]",IC50 [3] [µM],further results
Cc1cn(C2CCN(Cc3cccc(Oc4ccc(F)c(F)c4)c3)CC2)c(=O)[nH]c1=O,2.6,19,> 64,
Cc1cn(C2CCN(Cc3cccc(OC4CCCCC4)c3)CC2)c(=O)[nH]c1=O,42,37,23.6,
Cc1cn(C2CCN(Cc3cncc(Oc4cccc(OC(F)(F)F)c4)c3)CC2)c(=O)[nH]c1=O,0.81,37,> 64,
Cc1cn(C2CCN(Cc3cc(Oc4cccc(Cl)c4)ccn3)CC2)c(=O)[nH]c1=O,2.8,> 50,> 64,
Cc1cn(C2CCN(Cc3cccc(Oc4cccc(OC(F)(F)F)c4)c3)CC2)c(=O)[nH]c1=O,0.65,25,5.26,inhibition (INH) [6]: Not Active
Cc1cn(C2CCN(Cc3cncc(Oc4cc(Cl)cc(Cl)c4)c3)CC2)c(=O)[nH]c1=O,0.22,43,> 64,inhibition (INH) [7]: Not Active
Cc1cn(C2CCN(Cc3cccc(Oc4ccccc4)n3)CC2)c(=O)[nH]c1=O,,> 50,> 64,"MIC [4]: 62.5 µg/mL; MIC [5, 9]: 125 µg/mL"
Cc1cn(C2CCN(Cc3cccc(Oc4ccc(O)cc4)n3)CC2)c(=O)[nH]c1=O,1.1,> 50,,
Cc1cn(C2CCN(Cc3ccnc(Oc4cccc(Cl)c4)c3)CC2)c(=O)[nH]c1=O,3.1,37,> 64,MIC [4]: 15.6 µg/mL; MIC [5]: 31.25 µg/mL
Cc1cn(C2CCN(Cc3cccc(Oc4ccccc4C(=O)O)n3)CC2)c(=O)[nH]c1=O,25,> 50,,
Cc1cn(C2CCN(Cc3cncc(Oc4ccccc4)c3)CC2)c(=O)[nH]c1=O,6.4,37,> 64,
Cc1cn(C2CCN(Cc3cccc(Oc4cccc(O)c4)c3)CC2)c(=O)[nH]c1=O,,,> 64,
Cc1cn(C2CCN(Cc3cncc(Oc4cccc(Cl)c4)c3)CC2)c(=O)[nH]c1=O,0.77,31,> 64,
Cc1cccc(Oc2cccc(CN3CCC(n4cc(C)c(=O)[nH]c4=O)CC3)c2)c1,26,37,> 64,
Cc1cn(C2CCN(Cc3cc(Oc4cc(Cl)cc(Cl)c4)ccn3)CC2)c(=O)[nH]c1=O,0.6,34,,
Cc1cn(C2CCN(Cc3cccc(Oc4cc(Cl)cc(Cl)c4)c3)CC2)c(=O)[nH]c1=O,0.12,12.5,6.73,"MIC [4]: 7.8 µg/mL; MIC [5, 9]: 7.8 µg/mL; inhibition (INH) [6]: Not Active"
Cc1cn(C2CCN(Cc3cccc(Oc4ccccn4)c3)CC2)c(=O)[nH]c1=O,41,> 50,> 64,
